Tests used:
SK-MEL-28 = assay: Cytotoxicity against human SK-MEL-28 cells after 72 hrs by MTS assay; assay type: functional, cell-based; conditions: SK-MEL-28, 72 h
MRC5 = assay: Cytotoxicity against human MRC5 cells after 72 hrs by MTS assay; assay type: cell-based; conditions: MRC5, 72 h
MDA-MB-231 = assay: Cytotoxicity against human MDA-MB-231 cells after 72 hrs by MTS assay; assay type: functional, cell-based; conditions: MDA-MB-231, 72 h
[1] = Cytotoxicity against human JMAR cells after 72 hrs by MTS assay; assay type: functional, cell-based
[2] = Cytotoxicity against human DRO 81-1 cells after 72 hrs by MTS assay; assay type: functional, cell-based

Row | SMILES | IC50 (SK-MEL-28) | IC50 (MRC5) | IC50 (MDA-MB-231) | IC50 [1] | IC50 [2]
1 | CC1=C(CO)C(=O)O[C@@H]([C@@H](C)[C@H]2CC[C@H]3[C@@H]4C[C@H]5O[C@]56[C@@H](O)C=CC(=O)[C@]6(CO)[C@H]4CC[C@]23C)C1 | 1.6 µM | 5.3 µM | 1.5 µM | 3.1 µM | 1.7 µM
2 | CC(=O)OCC1=C(C)C[C@H]([C@@H](C)[C@H]2CC[C@H]3[C@@H]4C[C@H]5O[C@]56[C@@H](OC(C)=O)C=CC(=O)[C@]6(COC(C)=O)[C@H]4CC[C@]23C)OC1=O | 0.11 µM | 0.31 µM | 0.655 µM | 0.655 µM | 0.11 µM
3 | CC(=O)OCC1=C(C)C[C@H]([C@@H](C)[C@H]2CC[C@H]3[C@@H]4C[C@H]5O[C@]56[C@@H](OC(C)=O)C=CC(=O)[C@]6(CO)[C@H]4CC[C@]23C)OC1=O | 0.17 µM | 0.295 µM | 0.635 µM | 0.6 µM | 0.058 µM
4 | CC(=O)OC[C@]12C(=O)C=C[C@H](OC(=O)c3ccc(Cl)cc3)[C@]13O[C@@H]3C[C@H]1[C@@H]3CC[C@H]([C@H](C)[C@H]4CC(C)=C(COC(=O)c5ccc(Cl)cc5)C(=O)O4)[C@@]3(C)CC[C@@H]12 | ≥ 10 µM | ≥ 10 µM | ≥ 10 µM | ≥ 10 µM | ≥ 10 µM
5 | CC(=O)OCC1=C(C)C[C@H]([C@@H](C)[C@H]2CC[C@H]3[C@@H]4C[C@H]5O[C@]56[C@@H]5C=CC(=O)[C@]6(COC(=O)CC/C=C/CCC(=O)O5)[C@H]4CC[C@]23C)OC1=O | 0.205 µM | 0.36 µM | 0.245 µM | 0.965 µM | 0.225 µM
6 | C=CCCC(=O)OC[C@]12C(=O)C=C[C@H](OC(=O)CCC=C)[C@]13O[C@@H]3C[C@H]1[C@@H]3CC[C@H]([C@H](C)[C@H]4CC(C)=C(COC(C)=O)C(=O)O4)[C@@]3(C)CC[C@@H]12 | 0.47 µM | 0.865 µM | 0.625 µM | 1.44 µM | 0.58 µM
7 | CC(=O)OCC1=C(C)C[C@H]([C@@H](C)[C@H]2CC[C@H]3[C@@H]4C[C@H]5O[C@]56[C@@H](OC(C)=O)C=C(I)C(=O)[C@]6(COC(C)=O)[C@H]4CC[C@]23C)OC1=O | 0.275 µM | 0.475 µM | 0.21 µM | 0.83 µM | 0.115 µM
8 | CC1=C(CO)C(=O)O[C@@H]([C@@H](C)[C@H]2CC[C@H]3[C@@H]4C[C@H]5O[C@]56[C@@H](O)C=C(I)C(=O)[C@]6(CO)[C@H]4CC[C@]23C)C1 | 9.11 µM | 9.1 µM | > 10 µM | > 10 µM | 5.25 µM
9 | CC(=O)OCC1=C(C)C[C@H]([C@@H](C)[C@H]2CC[C@H]3[C@@H]4C[C@@H](OC(C)=O)C5=CC=CC(=O)[C@]5(COC(C)=O)[C@H]4CC[C@]23C)OC1=O | ≥ 10 µM | ≥ 10 µM | ≥ 10 µM | ≥ 10 µM | ≥ 10 µM
10 | CC(=O)OCC1=C(C)C[C@H]([C@@H](C)[C@H]2CC[C@H]3[C@@H]4C[C@@H](O)[C@@]5(Cl)CC=CC(=O)[C@]5(COC(C)=O)[C@H]4CC[C@]23C)OC1=O | 1.17 µM | 3.15 µM | 0.8 µM | 2.16 µM | 1.35 µM
11 | CC(=O)OCC1=C(C)C[C@H]([C@@H](C)[C@H]2CC[C@H]3[C@@H]4C[C@@H](O)C5=CC=CC(=O)[C@]5(COC(C)=O)[C@H]4CC[C@]23C)OC1=O | ≥ 10 µM | ≥ 10 µM | ≥ 10 µM | ≥ 10 µM | ≥ 10 µM
12 | CC(=O)OCC1=C(C)C[C@H]([C@@H](C)[C@H]2CC[C@H]3[C@@H]4C[C@H]5O[C@]56CC=CC(=O)[C@]6(COC(C)=O)[C@H]4CC[C@]23C)OC1=O | 0.71 µM | 2.05 µM | 0.79 µM | 1.22 µM | 1.1 µM
13 | CC(=O)OCC1=C(C)C[C@H]([C@@H](C)[C@H]2CC[C@H]3[C@@H]4C[C@H]5O[C@]56[C@@H](OC(=O)N(C)C)C=CC(=O)[C@]6(COC(C)=O)[C@H]4CC[C@]23C)OC1=O | 0.205 µM | 0.51 µM | 0.175 µM | 0.97 µM | 0.0865 µM
14 | CC1=C(CO)C(=O)O[C@@H]([C@@H](C)[C@H]2CC[C@H]3[C@@H]4C[C@H]5O[C@]56[C@@H](OC(=O)N(C)C)C=CC(=O)[C@]6(CO)[C@H]4CC[C@]23C)C1 | 0.515 µM | 1.75 µM | 0.61 µM | 2.09 µM | 0.585 µM
15 | CC1=C(COC(=O)c2ccc(Cl)cc2)C(=O)O[C@@H]([C@@H](C)[C@H]2CC[C@H]3[C@@H]4C[C@H]5O[C@]56[C@@H](OC(=O)c5ccc(Cl)cc5)C=CC(=O)[C@]6(COC(=O)c5ccc(Cl)cc5)[C@H]4CC[C@]23C)C1 | ≥ 10 µM | ≥ 10 µM | ≥ 10 µM | ≥ 10 µM | ≥ 10 µM
16 | CC1=C(COC(=O)c2ccc(Cl)cc2)C(=O)O[C@@H]([C@@H](C)[C@H]2CC[C@H]3[C@@H]4C[C@H]5O[C@]56[C@@H](OC(=O)c5ccc(Cl)cc5)C=CC(=O)[C@]6(CO)[C@H]4CC[C@]23C)C1 | ≥ 10 µM | ≥ 10 µM | ≥ 10 µM | ≥ 10 µM | ≥ 10 µM
17 | CC1=C(COC(=O)c2ccc(Cl)cc2)C(=O)O[C@@H]([C@@H](C)[C@H]2CC[C@H]3[C@@H]4C[C@H]5O[C@]56[C@@H](O)C=CC(=O)[C@]6(COC(=O)c5ccc(Cl)cc5)[C@H]4CC[C@]23C)C1 | 1.11 µM | 2.35 µM | 2.62 µM | 4.64 µM | 1.9 µM
18 | CC1=C(CO)C(=O)O[C@@H]([C@@H](C)[C@H]2CC[C@H]3[C@@H]4C[C@H]5O[C@]56[C@@H](OC(=O)c5ccc(Cl)cc5)C=CC(=O)[C@]6(CO)[C@H]4CC[C@]23C)C1 | 2.25 µM | 2.55 µM | 1.4 µM | 1.72 µM | 1.85 µM
19 | CCC(=O)OCC1=C(C)C[C@H]([C@@H](C)[C@H]2CC[C@H]3[C@@H]4C[C@H]5O[C@]56[C@@H](OC(=O)CC)C=CC(=O)[C@]6(COC(=O)CC)[C@H]4CC[C@]23C)OC1=O | 0.285 µM | 0.615 µM | 0.365 µM | 1 µM | 0.13 µM
20 | CC(=O)OCC1=C(C)C[C@H]([C@@H](C)[C@H]2CC[C@H]3[C@@H]4C[C@H]5O[C@]56[C@@H](O)C=CC(=O)[C@]6(COC(C)=O)[C@H]4CC[C@]23C)OC1=O | 0.23 µM | 0.49 µM | 0.205 µM | 0.515 µM | 0.155 µM
21 | CC(=O)O[C@H]1C=CC(=O)[C@]2(CO)[C@H]3CC[C@]4(C)[C@@H]([C@H](C)[C@H]5CC(C)=C(CO)C(=O)O5)CC[C@H]4[C@@H]3C[C@H]3O[C@]132 | 1.22 µM | 1.2 µM | 0.89 µM | 2.48 µM | 0.57 µM
22 | CC(=O)OC[C@]12C(=O)C=C[C@H](O)[C@]13O[C@@H]3C[C@H]1[C@@H]3CC[C@H]([C@H](C)[C@H]4CC(C)=C(CO)C(=O)O4)[C@@]3(C)CC[C@@H]12 | 1.23 µM | 1.8 µM | 1.15 µM | 3.06 µM | 0.78 µM
23 | CC(=O)OCC1=C(C)C[C@H]([C@@H](C)[C@H]2CC[C@H]3[C@@H]4C[C@H]5O[C@]56[C@@H](O)C=CC(=O)[C@]6(CO)[C@H]4CC[C@]23C)OC1=O | 0.705 µM | 2.3 µM | 0.415 µM | 1.22 µM | 1.05 µM
24 | CC1=C(CO)C(=O)O[C@@H]([C@@H](C)[C@H]2CC[C@H]3[C@@H]4C[C@H]5O[C@]56[C@@H](O)C=CC(=O)[C@]6(C)[C@H]4CC[C@]23C)C1 [WITHAFERIN A] | 1 µM | 2.7 µM | 0.54 µM | 1 µM | 0.78 µM
